A word on the EC50: it is the concentration needed to bring the measured effect to its halfway point. The term IC50 denotes the concentration that gives 50% inhibition.

Among the data in PubChem BioAssay AID179 (DTP/NCI, 2004) are EC50, IC50 and outcome values, retold here.

The subject of the assay is CEM cells HIV-1 protection, formazan growth assay. Description: NCI AIDS Antiviral Assay. Conditions: for IC50: measured here: growth of uninfected CEM cells. The procedure, abridged: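 Steps: treat uninfected and HIV-1-infected human CEM cells at five drug levels; quantify growth by soluble formazan; retest any compound reaching 50% protection; classify actives from the retest.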

Active and inactive are the calls of the source.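 The calls were made as follows: active = compounds giving half or more protection of infected cells from virus-caused growth loss, again on retest; inactive = the rest.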

`CCCCCC(CO)C(O)(C(F)(F)F)C(F)(F)F` (centres undefined): the EC50 is above 200 µM and the IC50 worked out at 70.8 µM.
In the case of `O=C(O)CN(CC(=O)O)C1CCCCC1N(CC(=O)O)CC(=O)NCCN=C=S` (centres undefined), the EC50 is above 200 µM and the IC50 is above 200 µM.
As to `CC(C)(C)OC(=O)NC(Cc1ccc(OCc2ccccc2)cc1)C(=O)NC(COCc1ccccc1)C(=O)Oc1c(Cl)c(Cl)c(Cl)c(Cl)c1Cl` (centres undefined), the EC50 is above 100 µM and the IC50 was found to be 44.7 µM.
On to `COc1ccc(-c2nnc(-c3ccncc3)o2)cc1`, for which the EC50 was above 200 µM and the half-inhibitory concentration (IC50) was above 200 µM.
On to `CCOC(=O)C1C(=O)c2ccccc2CN1Cc1ccccc1` (centres undefined), for which the outcome was inactive.
On to `CCCCCCCCCCCCCCCCNc1ccn(C2CC(OP(=O)(O)OCC3OC(n4cc(C)c(=O)[nH]c4=O)CC3N=[N+]=[N-])C(CO)O2)c(=O)n1` (centres undefined), for which the EC50 was 0.182 µM and the IC50 was 77.6 µM.
As for `O=C(O)c1cc(NCc2cc(O)ccc2O)ccc1O`, the EC50 is above 25.1 µM and the IC50 stood at 5.13 µM.
`C#CC1(O)CCC2C3CCc4cc(Oc5nc(F)nc(-c6c7ccccc7c7n6CCS7)n5)ccc4C3CC[C@@]21C` (some centres undefined): the EC50 is above 200 µM and the IC50 came out at 11.2 µM.
Take `Cc1cc(S(=O)(=O)Nc2nc(N)nc(N3CCOCC3)n2)c(S)cc1Cl`: the EC50 was 61.7 µM and the IC50 was above 200 µM.
`O=C(NO)C12C3C4C1C1C2C3C41C(=O)NO` (centres undefined): the EC50 was above 1120 µM and the IC50 is 631 µM.
As to `c1cc(-c2nc(-c3ccncc3)nc(-c3ccncc3)n2)ccn1`, the EC50 is above 200 µM and the IC50 was above 200 µM.
Turning to `NCCCNc1ccc2c(c1)[n+]([O-])c1ccccc1[n+]2[O-]`, the EC50 is above 437 µM and the IC50 turned out to be 10.2 µM.
Turning to `O=[N+]([O-])c1ccc(S(=O)(=O)c2ccc([N+](=O)[O-])cc2C(F)(F)F)c(C(F)(F)F)c1`, the result was inactive.
Turning to `NC(=S)N/N=C/c1ccc(O)cn1`, the EC50 is above 661 µM and the IC50 was 1.12 µM.
The corresponding values for `CN(C)CCCN=C(N)CSP(=O)(O)O` are above 200 µM and 32.4 µM.
The like results for `N#CCCN(CCC#N)c1ccc(/C=C2/C=C(c3ccccc3)OC2=O)cc1` were, in that order, above 14.1 µM and above 14.1 µM.
For `CC1CCCN2C(=O)CN(c3ccccc3)CC(=O)N12` (centres undefined), the EC50 is above 200 µM and the IC50 is above 200 µM.
On to `CC1(C)CCCCCCC2OC2CCCCCC(C)(C)C1=O` (centres undefined), for which the EC50 was above 200 µM and the IC50 came out at 38 µM.
Take `CC1(C)OC[C@@H]([C@H](C=O)OCc2ccccc2)O1`: the EC50 is above 200 µM and the IC50 is above 200 µM.
Regarding `N#Cc1nc(CCCN2C(=O)c3ccccc3C2=O)oc1N`, the EC50 is above 200 µM and the IC50 was above 200 µM.
As to `C=C(Cn1cnc2c(N)ncnc21)C(=O)OC`, the EC50 was above 107 µM and the concentration for half-maximal inhibition (IC50) amounted to 7.76 µM.
For `CC(C)(C)OC(=O)N(CCNS(=O)(=O)c1cccc2cnccc12)CCC(=O)ON1C(=O)CCC1=O`, the EC50 is above 200 µM and the IC50 was above 200 µM.
In the case of `CCOC(=O)C1=CC(C(=O)OCC)C2C=CC1N2C(=O)OC` (centres undefined), the outcome was inactive.
`COc1ccc(C2CN(C(=O)c3ccccc3)N=C(c3ccccc3)O2)cc1` (centres undefined): the EC50 was above 17 µM and the IC50 is above 17 µM.
As to `C=C[C@@]1(C)CCC2(O)C(CCC3C2(C)CCC[C@@]3(C)COC(=O)CC(=O)OC)C1` (some centres undefined), the EC50 is above 24.5 µM and the IC50 is above 24.5 µM.
Regarding `Cc1nc2sccn2c1C(=O)N/N=C1\SCC(=O)N1C`, the EC50 is above 427 µM and the IC50 was above 427 µM.
Consider `COc1ccc(N2C(=O)C3c4[nH]c5cccc(C)c5c4C4CCC(C(C)(C)C)CC4C3C2=O)cc1` (centres undefined), for which the EC50 is above 200 µM and the IC50 was 89.1 µM.
Regarding `CC(=O)OC[C@]1(C)C2C=C[C@@H]3C4(CC[C@]5(C)C(C(C)N(C)C)[C@H](O)CC35C)CC24CC[C@@H]1N(C)C` (some centres undefined), the result was inactive.
Consider `COc1ccc(/C=N\N2CC(=O)N3C4C=CC(CC4)N3C2=O)cc1` (centres undefined), for which the EC50 was above 200 µM and the half-inhibitory concentration (IC50) is above 200 µM.
For the compound `Cc1noc(NS(=O)(=O)c2ccc(N=c3c4ccccc4n(Cc4ccccc4)c4ccccc34)cc2)c1C`, the result was inactive.
Turning to `COc1ccc2c(c1)OC[C@@H]1c3cc(NS(=O)(=O)c4ccccc4)cc(OC)c3O[C@H]21`, the EC50 was above 200 µM and the IC50 worked out at 18.2 µM.
For the compound `O=[N+]([O-])C(C(Cl)=C(Cl)Cl)=C(N1CCCCC1)N1CCCCC1`, the EC50 is above 200 µM and the IC50 amounted to 186 µM.
On to `O=c1c(Cl)c(N2CCOCC2)cnn1-c1ccccc1`, for which the EC50 was above 234 µM and the IC50 was 209 µM.
The corresponding values for `Cc1cc(Cl)ccc1NC(=O)/C(=N\NC(C)(C)C)C(C#N)c1nc(-c2ccc([N+](=O)[O-])cc2)cs1` (centres undefined) are 2.63 µM and 10.2 µM.
In the case of `Cc1ccc(S(=O)(=O)Nn2c(-c3ccccc3)c(C#N)c(-c3ccc(Cl)cc3)c(C#N)c2=O)cc1`, the EC50 is above 200 µM and the IC50 was 38.9 µM.
`CCCCON1C[C@@H](O)C(O)[C@@H](O)C1` (some centres undefined): the EC50 was above 200 µM and the concentration for half-maximal inhibition (IC50) was above 200 µM.
Regarding `CC1C(NNC(N)=O)Oc2cc3c(cc2C1c1ccccc1O)OCO3` (centres undefined), the EC50 is above 200 µM and the IC50 came to 32.4 µM.
On to `O=C1C(Cl)N(c2ccc([N+](=O)[O-])cc2)C1c1c[nH]c2ccccc12` (centres undefined), for which the EC50 is above 145 µM and the IC50 stood at 18.2 µM.
For `O=c1oc2ccccc2c(O)c1C(c1cccc(C(c2c(O)c3ccccc3oc2=O)c2c(O)c3ccccc3oc2=O)c1)c1c(O)c2ccccc2oc1=O`, the EC50 was 42.7 µM and the IC50 is above 100 µM.
`CC(C)(C)OC(=O)C(C1NC2C(=O)OCC2(CO)S1)N1C(=O)c2ccccc2C1=O` (centres undefined): the EC50 was above 200 µM and the IC50 was above 200 µM.
In the case of `C=C(c1cc(C(=O)OC)c(OC)c(Br)c1C)c1cc(C(=O)OC)c(OC)c(Br)c1C`, the EC50 was above 200 µM and the IC50 turned out to be 77.6 µM.
The corresponding values for `O=c1[nH]c2cc(C(F)(F)F)ccc2nc1Cc1ccccc1` are above 200 µM and above 200 µM.
Take `COc1ccc(SCc2cc(OCc3ccccc3)c(OCc3ccccc3)c(OCc3ccccc3)c2)cc1`: the EC50 was above 200 µM and the IC50 is above 200 µM.
Consider `COC(=O)C(Cc1nc2ccc(Cl)cc2[nH]c1=O)C(=O)C(=O)Nc1cc(C)ccc1C` (centres undefined), for which the EC50 was above 214 µM and the 50% inhibitory concentration (IC50) is above 214 µM.
Regarding `Cc1c(C(=O)NCCO)[n+](=O)c2ccccc2n1[O-]`, the EC50 is above 135 µM and the IC50 was above 135 µM.
Consider `CC(C)(C)c1cc(C2NC(=O)NC2=O)cc(C(C)(C)C)c1O` (centres undefined), for which the EC50 was above 20 µM and the IC50 is above 20 µM.
On to `CC(C)(C)OC(=O)c1ccc(NCC2=CC(=O)C=CC2=O)cc1`, for which the EC50 is above 200 µM and the concentration for half-maximal inhibition (IC50) was found to be 10.2 µM.
On to `CCc1cccc(C(C)C)c1NC(=O)C(=O)C(C(=O)C(=O)OC)c1nc2ccccc2[nH]c1=O` (centres undefined), for which the EC50 is above 537 µM and the IC50 worked out at 269 µM.
For `Nc1ccc(C(=O)NN2C(=O)C(Cl)C2c2ccccc2Cl)cc1` (centres undefined), the EC50 was above 200 µM and the concentration for half-maximal inhibition (IC50) worked out at 3.31 µM.
With `CCC(Oc1ccc(OC)c2c1C(=O)CCC2)C(=O)O` (centres undefined), the result was inactive.
